Data on five molecules can be found in patent publication US10494417B2, “Peptide inhibitors of BCR-ABL oligomerization” (University of Utah Research Foundation, priority 2014, dated 2019).

Entries after “also recorded” stand apart in the source; their conditions may differ.

Data set [1] deals with CD34+ cells from newly diagnosed CML patients. Briefly: Colony forming assay of CD34+ cells from newly diagnosed CML patients. The data set is classed as cell-based, human. The settings on record: day 14 CFU-GM; lentiviral CCmut3 or 2.5 μM imatinib vs EV. The method, then: Primary cells were seeded in Methocult H4230 (Stem Cell Technologies) as described previously (Fleischman, A. G., et al. (2011). Blood 118, 6392-6398). Briefly, lentivirus-infected (GFP^+) cells were isolated by FACS and resuspended in RPMI1640. Cells were plated in Methocult H4230 at 1,000 cells/mL supplemented with 1× StemSpan CC100 cytokine mix (StemCell Technologies) with or without TKI as indicated in each experiment. Plates were incubated at 37° C. in a 5% CO2 humidified incubator for 14 days. Colony forming units of granulocyte-macrophage (CFU-GM) were counted on day 14 using an inverted microscope.
Following selection of transfected cells by cell sorting, methylcellulose colony assays were performed by plating in 0.9% methylcellulose (Stem Cell Technologies; M3234 for Ba/F3 BCR-ABL1 native and mutant lines; M3434 for Ba/F3 parental cells; H4230 for CML patient samples). mCherry-positive Ba/F3 cells (1.1×10^3 cells/plate) or GFP-positive primary CML CD34+ cells (1×10^3 cells/plate) were seeded per dish in duplicate. In the case of CML patient samples, cells were plated in the presence of 1× StemSpan CC100 cytokine cocktail (StemCell Technologies). All cells were plated with or without the indicated TKI in three or more independent experiments. Plates were incubated at 37° C. in a 5% CO2 humidified incubator. Colonies were counted 7-14 days later in an area of 50 μm2 per dish using an inverted microscope.

The subject of data set [2] is K562 cells. Nature of the data set: Colony forming assay of transfected K562 cells. The format is cell-based, human. The settings on record: for colony formation (transformative ability), in words: construct delivered as a gene by transfection, vs EGFP (and WT) control. The method, then:
Both EGFP and EGFP-CC^mut3 were transfected into separate groups of cells on day 0. One day following transfection, 1.0×10^6 cells per treatment group were collected and re-suspended in 1.0 mL of PBS. Through serial dilutions, 1.0×10^3 cells in IMDM (Isocove's modified Dulbecco's media) with 2% FBS were seeded into methylcellulose medium in the absence of cytokines (MethoCult H4230 for K562 cells and MethoCult M3234 for p210 and p210-T315I cells) or in the presence of cytokines (MethoCult GF M3434 for parental Ba/F3 cells). Ponatinib was then added in the correct molar amounts (0, 100 pM, 1 nM, or 10 nM) to the methylcellulose medium. Colonies formed were counted after 7 days of incubation. All reagents were purchased from Stem Cell Technologies, Vancouver, BC, Canada. Assay was run three separate times (n=3) in duplicate.
(§1) Briefly, K562 or Ba/F3-p210 cells were transfected according to the protocol above. One day following transfection, 1.0×10^6 cells per transfection group were collected and re-suspended in sterile PBS. […] Finally, 1.1 mL of cell/methylcellulose mixture was seeded in duplicate and allowed to grow at 37° C. and 5% CO2 for 7 days. Colony formation was assessed by counting colonies in two 200 μm2 areas on the plate. Experiments were performed once in duplicate (n=1 in duplicate). All kit reagents and media were purchased from Stem Cell Technologies (Vancouver, BC, Canada).

The next data set has as its system Ba/F3-P210 cells. Nature of the data set: Viability of transfected Ba/F3-p210 cells (trypan blue exclusion). The format is cell-based, mouse. To be noted: 72 h following transfection, vs mCherry control, n=1. On the procedure:
Two days following cell passaging, 3.0×10^6 cells were collected by centrifugation at 750×g for 10 min for each transfection group. Following collection, 4 μg DNA was transfected into cells according to the Cell Line Nucleofector® Kit V protocol (program X-001) using the Amaxa Nuelcofector II. Following nucleofection, the DNA/cell mixture was added to 500 μL plain RPMI and incubated for 20 min. After incubation, the 500 μL cell/DNA/RPMI mixture was added to complete RPMI 1640 media and allowed to incubate at 37° C. for 72 h until analysis.
(§2) Forty-eight or 72 h following transfection, 100 μL of treated K562 or Ba/F3-p210 cells was mixed with 100 μL trypan blue solution (Life Technologies). The numbers of viable cells (those impermeable to the trypan blue dye) from four different quadrants in an INCYTO™ C-CHIP™ Neubauer hemacytometer (VWR International, Radnor, Pa., USA) were counted using a standard light microscope. Quadrant counts were then averaged to obtain the number of viable cells per mL. For experiments using the Helix2mut3 construct, counts were performed on one aliquot per transfection (n=3 in replicate). In experiments involving the CappedHelix2mut3 construct, counts were performed three times using separate 100 pt aliquots from one transfection (n=1 in triplicate).

Data set [3] concerns Ba/F3 cells expressing native BCR-ABL1 (Ba/F3-p210). Briefly: Colony forming assay of transfected Ba/F3-p210 cells. The format is cell-based, mouse. To be noted: cappedHelix2mut3 study, n=1, data not shown. On the procedure:
as §1

Data set [4] has as its system K562 cells. Briefly: Proliferation/viability of transfected K562 cells (trypan blue exclusion). The format is cell-based, human. To be noted: 72 h following transfection, trypan blue exclusion, vs mCherry control, n=1. On the procedure: K562 cells, human leukemia Bcr-Abl^+ cells (gifted from Kojo Elenitoba-Johnson, University of Michigan), were grown in RPMI 1640 media supplemented with 10% FBS, 1% penicillin-streptomycin-glutamine, and 0.1% gentamicin (complete medium). […] Transfections were carried out two days following cell passaging. Then, 2.0×10^6 cells were collected and transfected with 6 μg pf pEGFP, pEGFP-CC^mut3, pmCherry, or pmCherry-CC^mut3 according to the Cell Line Nucleofector Kit V protocol, program T-013, using the Amaxa Nucleofector II (Lonza Group, Basel, Switzerland).
Cell counts were performed using a standard light microscope.
Two days following cell passaging, 2.0×10^6 cells were collected by centrifugation at 500×g for 10 min for each transfection group. Following cell collection, 6 lig DNA (pEGFP, pEGFP-CC, pEGFP-CCmut3, pEGFP-Helix2WT, pEGFP-Helix2mut3, pmCherry, pmCherry-CCmut3, or pmCherry-CappedHelix2mut3) was transfected into cells according to the Cell Line Nucleofector® Kit V protocol (program T-013) using the Amaxa Nucleofector II (Lonza Group, Basel, Switzerland). Following transfection, the DNA/cell mixture was added to 10 mL Complete RPMI 1640 media and allowed to incubate at 37° C. for 24, 48, or 72 h until analysis, depending on the assay.
as §2

In data set [5] the test system is K562 cells. Nature of the data set: Nuclear (DNA) segmentation apoptosis assay in transfected K562 cells. The data set is classed as cell-based, human. The settings on record: 48 h, vs EGFP control. The method, then:
CC^mut3 was then tested for its ability to induce apoptosis in K562 cells. Apoptosis was observed using 3 different methods: 1) nuclear segmentation; 2) induction of the effector Caspase-3/7; and 3) 7AAD/Annexin V staining.
Nuclear segmentation analysis was performed as previously described (16). Briefly, immediately prior to cellular analysis, 2-well live cell chambers were treated for 15 min with poly-L-lysine (Sigma-Aldrich, St. Louis, Mo., USA), to allow cell adhesion in the wells. Forty-eight h following transfection, the transfected K562 cells were transferred to the pretreated 2-well live cell chambers. Cells were incubated for 15 min at 37° C. following the addition of 0.3 μL Hoechst H33342 nuclear stain (Life Technologies, Carlsbad, Calif., USA). Cells were then imaged using an inverted fluorescence microscope (Olympus IX701F, Scientific Instrument Co., Sunnyvale, Calif., USA) equipped with an F-view Monochrome CCD camera. Fields of view were selected based on EGFP fluorescence when viewing using a 40× oil immersion objective. Nuclei from cells that were positively transfected (positive for EGFP fluorescence) were categorized as either healthy (round or kidney-shaped nuclei) or segmented (punctate staining of nuclei), and the percentage of cells with segmented DNA was calculated (n=3 in replicate).

Data set [6] relates to CML CD34+ cells expressing BCR-ABL1T315I. Nature of the data set: Colony forming assay of primary CML CD34+ cells expressing BCR-ABL1T315I (samples R1, R2). The format is cell-based, human. To be noted: sample R1 (accelerated phase); lentiviral CCmut3 or 10 nM ponatinib vs EV. The method, then: Mononuclear cells (MNCs) were separated from the peripheral blood of patients with newly diagnosed or therapy-resistant CML with a documented T315I mutation, using Ficoll (Nycomed, Oslo, Norway). Isolation of the CD34^+ fraction was done on an autoMACS Pro (Miltenyi Biotech). […] Cells were infected with lentivirus at a multiplicity of infection (MOI) of 5 for each construct at 24 and 48 hours following harvest (fresh cells) or thaw (frozen cells). Cells were sorted on a BD FACSAria cytometer after 72 h, and GFP-positive cells were returned to culture medium for future experiments. All patients gave their informed consent in accordance with the Declaration of Helsinki, and all studies with human specimens were approved by The University of Utah Institutional Review Board (IRB).
Briefly, lentivirus-infected (GFP^+) cells were isolated by FACS and resuspended in RPMI1640. […] Plates were incubated at 37° C. in a 5% CO2 humidified incubator for 14 days. Colony forming units of granulocyte-macrophage (CFU-GM) were counted on day 14 using an inverted microscope.
All cells were plated with or without the indicated TKI in three or more independent experiments. Plates were incubated at 37° C. in a 5% CO2 humidified incubator. Colonies were counted 7-14 days later in an area of 50 μm2 per dish using an inverted microscope.

The conditions of data set [7]: Phase III trial for first-line therapy in CML patients, discontinued; cited from earlier work.
Data set [8] relates to CML CD34+ cells expressing BCR-ABL1T315I. Nature of the data set: Liquid culture of primary T315I CML cells. To be noted: CC^mut3 or increasing concentrations of ponatinib (FIG. 28C). The data set is classed as cell-based, human. On the procedure: Cell proliferation was assessed using the CellTiter 96® AQueous One Solution Cell Proliferation Assay (MTS assay, Promega) according to manufacturer instructions. Briefly, 5,000 viable cells were added to a single well in 96-well plate in 100 μL RPMI1640. Three independent samples were seeded in duplicate for each time point. […] In some experiments, cell proliferation was assessed using a Neubauer chamber and trypan blue dye exclusion.

For `Cc1ccc(NC(=O)c2ccc(CN3CCN(C)CC3)cc2)cc1Nc1nccc(-c2cccnc2)n1` [imatinib, reference compound], the “colony formation, in words” value in data set [1] is recorded as “equally effective in reducing colony number”.
On to “cappedHelix2mut3: residues 27-68: α-helix2 of BCR-ABL CC domain with capping residues S27 and G68 and CCmut3 mutations (SVGDIEQELERAEARIRRDEQRVNQERFRMIYLETLLAKEKG)”, for which the colony formation entry with K562 cells [2] (cappedHelix2mut3 study, n=1, data not shown) is reported as “failed to out-perform the negative control; also recorded: same pattern as in the cell proliferation studies”; in data set [3], “same pattern as in the cell proliferation studies”. Further, in the data set with Ba/F3-P210 cells, the “proliferation/viability of Ba/F3-p210 cells” value is listed as “replicated to a similar extent; also recorded: no evidence of BCR-ABL inhibition”. Moreover, the “proliferation/viability of K562 cells” value in the data set with K562 cells [4] is given as “failed to out-perform the negative control; also recorded: did not display inhibition of cell proliferation; also recorded: no evidence of BCR-ABL inhibition”.
Turning to “helix2 domain: helix2 domain (amino acids 28-67) with the CC^mut3 mutations, delivered as a gene via nucleofection (MELRSVGDIEQELERAEARIRRDEQRVNQERFRMIYLETLLAKEKKSYDR)”, the “colony formation (transformative ability), in words” value in the data set with K562 cells [2] is on record as “sufficient to inhibit colony formation in K562 cells”.
Turning to “Helix2mut3: residues 23-72: α-helix2 of BCR-ABL CC domain plus five flanking residues each end, with CCmut3 mutations (MELRSVGDIEQELERAEARIRRDEQRVNQERFRMIYLETLLAKEKKSYDR)”, in the data set on K562 cells [2] (7 days after seeding, normalized to EGFP control, n=1 in duplicate), the “colony formation, of EGFP control” value is recorded as “approximately 67%”. For the same molecule, the “colony formation (transformative ability), in words” value in the data set on K562 cells [2] is given as “outperformed negative control EGFP; also recorded: showed inhibitory activity; also recorded: prevented outgrowth of colonies to a greater extent than the EGFP control, however, not as well as the full length CCmut3”. Also, in the data set with K562 cells [5], the “induction of apoptosis (nuclear/DNA segmentation)” value is “outperformed negative control EGFP; also recorded: statistically significant increase in apoptosis; also recorded: apoptosis was induced to a similar extent between both CCmut3 and Helix2mut3; also recorded: significantly induced apoptosis”.
In the case of `Cc1ccc(C(=O)Nc2ccc(CN3CCN(C)CC3)c(C(F)(F)F)c2)cc1C#Cc1cnc2cccnn12` [ponatinib, 3-[2-(imidazo[1,2-b]pyridazin-3-yl)ethynyl]-4-methyl-N-{4-[(4-methylpi-perazin-1-yl)methyl]-3-(trifluoromethyl)phenyl}benzamide, reference compound], the “reduction of colony formation” value in [6] came to 47%. Besides, in data set [7], the “patients with serious side effects” value is ~12%. The “effect in liquid culture” value in [8] is given as “no effect”.
